According to ChEMBL document CHEMBL3507680, “University of Dundee, Gates Library screen for HepG2 cell viability”:

Test: Human HepG2 cell viability assay in 384 well format
Format: toxicity, cell-based
Parameters: dose 125 nL, time 70.5 hour; cytotoxicity at 70.5 h: concentration not given beside the values
Settings: HepG2 cells, read-out: Inhibition

Compound | cytotoxicity at 70.5 h
CN1CCN(C(=O)C2SCCc3sccc32)CC1 (stereo unspecified) | -6.9%
CCn1cc(NC(=O)c2cccc(OCC(F)(F)F)n2)cn1 | -7.52%
Cc1cnn(Cc2cccc(OCC(N)=O)c2)c1 | -1.49%
O=C(NC1CC1)N1CCCC2(CCCCN2)C1 (stereo unspecified) | -5.05%
Cc1ccc(N(C)C2CCN(C(=O)CCc3ccco3)CC2)nn1 | -11.8%
COc1ccccc1Nc1nc2c(s1)C(=O)CN(C(=O)CC(C)C)C2 | 2.87%
CCCC(=O)N1CCC(O)(Cn2c(CC)nc3ccccc3c2=O)CC1 | -16.7%
O=C1N[C@H]2OCCC[C@H]2[C@H](c2ccccc2C(=O)O)N1 | 13.9%
Cc1ccc(C(=O)NCCCNS(C)(=O)=O)c(=O)[nH]1 | -3.31%
Cc1cccnc1CN(C)C(C(=O)O)c1ccc(-n2cccn2)cc1 (stereo unspecified) | -2.91%
CCN1CCN(S(=O)(=O)N2CCCC2)[C@H]2CS(=O)(=O)C[C@H]21 | -3.04%
CC(O)CN1CCC(CNCc2ccc(S(C)(=O)=O)cc2)CC1 (stereo unspecified) | -3.17%
C[C@@H]1CN(Cc2cccnc2)C[C@]1(C)O | -15.2%
CC(C)(C#N)c1ccc(NS(=O)(=O)CC2CCCCO2)cc1 (stereo unspecified) | -0.0974%
CCNc1ncc(C(=O)N2CCC(c3ccccc3C(=O)O)C2)cn1 (stereo unspecified) | 2.76%
C[C@@H]1C[C@H]2CN(C(=O)C3=CCCC3)C[C@H]2O1 | -4.11%
COCCCC1(CO)CCCN(C(=O)c2cnc(C3CC3)nc2)C1 (stereo unspecified) | -4.81%
CN(C)CCN(C(=O)Cc1ccc2c(c1)OCCO2)C1CCN(C)CC1 | 2.11%
Cc1nnc2n1CCN(C(=O)CN(C)Cc1ccccc1)C2 | 19.2%
CCN1C[C@H]2C[C@H](C(=O)Nc3ccccc3)[C@@H](C1)O2 | 16.4%
CCC(C(=O)NCc1nc(C)cc(C(F)(F)F)n1)n1cccn1 (stereo unspecified) | -11.3%
COc1cc(C(=O)N2CCCC(c3cc(C)[nH]n3)C2)cc(OC)c1C (stereo unspecified) | 29%
COC(=O)c1ccc(CN2CCC(c3n[nH]c(C)n3)CC2)s1 | -0.468%

Compound | cytotoxicity at 70.5 h
OCC1CN(Cc2nc(C(F)(F)F)cs2)c2ccccc2O1 (stereo unspecified) | -9.55%
Cc1noc(C)c1CN1CC2(CCN(Cc3c[nH]cn3)CC2)CC1=O | -2.12%
CCOC(=O)c1sc2ccsc2c1CNS(C)(=O)=O | -3.52%
O=C(c1cn(-c2ccccc2Cl)nn1)N1CCN(CCO)CC1 | -5.32%
O=C(c1ccc[nH]1)N1CCC2(CC1)CC(Oc1cccnc1)CO2 (stereo unspecified) | 25%
CCN(CC)Cc1cc(C(=O)N2CCC3(CCN(C)CC3)C2)c(C)o1 | -14.5%
CC(C)c1nc(CN(C)Cc2ncccc2C(=O)O)cs1 | 4.17%
Cc1nc(N(C)C)nc(-c2cccc(-c3ccn(CCCO)n3)c2)c1C | -7.13%
COc1c(C)cnc(CN2CCCCC2CCN2CCOCC2)c1C (stereo unspecified) | -11.7%
CCCN(Cc1nccn1C)C(=O)c1cc(C(C)C)on1 | 3.45%
CCO[C@H]1C[C@@H](O)C12CCN(C(=O)CCN1CCCC1=O)CC2 | -9.62%
O=S(=O)(NCCN1CCOCC1)c1cncc(Cl)c1 | 4.99%
O=S(=O)(C1CC1)N1CCC(Cn2cccn2)CC1 | -7.23%
CC1CN(C(=O)Nc2cccc(CN3CCOC3=O)c2)CCO1 (stereo unspecified) | -9.66%
COc1ccc(OCc2nc(C(=O)N3C[C@H](O)[C@@H](N(C)C)C3)co2)cc1 | -4.57%
CSCCNc1ccc(C(=O)N(C)Cc2ccc3ccccc3n2)cn1 | -12.8%
CC(C)N1[C@H](CN2CCCC2)C[C@@H]2CN(Cc3cnn(C)c3)CC[C@@H]21 | -10.1%
CC(=O)c1c(F)cccc1NC1CCN(C(=O)CC(C)C)CC1 | 12.4%
Cc1ccc(N2CCCc3sc(C(=O)NCC4CCCO4)nc32)nn1 (stereo unspecified) | -8.45%
CC(C)(C)CN(CCC#N)C(=O)Cc1ccc(-n2cnnn2)cc1 | -10.8%
Cc1ccc(F)cc1CC(=O)N1CC[C@@]2(O)CCNC[C@H]2C1 | -5.81%
COc1cccc(CC(=O)N2CCCN(c3ccnc(C)c3)CC2)c1 | -3.97%
Cc1nc(-c2ccc(Cl)s2)sc1C(=O)NC(C)(C)C(N)=O | -4.82%

Compound | cytotoxicity at 70.5 h
CC(C)c1noc(C(C)N2CCN(CCCN3CCCC3=O)CC2)n1 (stereo unspecified) | -0.928%
CC1CCN(c2ccnc3ccc(Br)cc23)CC1 | 2%
CCC(CC)(CNC(=O)c1cccn1Cc1cccnc1)N(C)C | -3.43%
CC(C)(C)c1cc(C[C@H]2CNCC[C@H]2CC(=O)N2CCCCC2)no1 | -1.6%
O=C([C@H]1CC[C@@H]2[C@@H](CCN2c2ncccn2)O1)N1CCCCO1 | -1.66%
COc1ccccc1C(C)(C)NC(=O)c1ccc(F)c(NC(C)=O)c1 | -7.74%
COc1ccc(NC(=O)N2CCC(c3nnc[nH]3)CC2)cc1C | -3.69%
O=C(O)[C@@H]1CN(C(=O)c2ccc3[nH]nnc3c2)C[C@H]1c1ccccc1 | -4.96%
COCCNC(=O)C[C@@H]1COC[C@H]2CN(Cc3cccnc3)C[C@@H]12 | -0.897%
COc1cc(CNC(=O)COC2CCCCC2)ccc1O | -4.46%
CCCC(=O)NC(C(=O)OC)c1cc(F)ccc1F (stereo unspecified) | -3.96%
CN(CC(=O)c1ccc2[nH]c(=O)[nH]c2c1)Cc1ccc2c(c1)OCO2 | -3.13%
Cc1ccc(F)c2c1N(C(=O)c1cn(CC(=O)N(C)C)nn1)CCC2 | -10.6%
CN(CCc1ccccc1)Cc1c(C2CCOCC2)[nH]c2ncccc12 | -2.01%
O=C(NCCSCc1ccco1)c1ccc(N2CCOCC2)cc1 | -12.3%
O=C(NCN1CCc2ccccc2C1)c1cnccn1 | -8.88%
CNC(=O)NC(=O)CN(CC(C)O)c1ccccc1 (stereo unspecified) | -3.36%
O=C(c1cnc(Nc2ccccc2)nc1)N1CCC(O)(CO)CC1 | -6.53%
Cc1ccc(CNC(=O)C2c3c(ncn3C(C)C)CCN2S(C)(=O)=O)o1 (stereo unspecified) | -0.242%
COc1c(C)cnc(CNC(=O)c2cc(C)nc3c2c(C)nn3C)c1C | -6.5%
Cc1nc(CO[C@@H]2CN(Cc3ccsc3)[C@@H]3COC[C@@H]32)cs1 | -6.52%
CN(C)CC(=O)N1CCCC1c1ccccn1 (stereo unspecified) | -3.81%
Cc1ccccc1-c1cncc(C2CCN(C)CC2)n1 | -14.3%

Compound | cytotoxicity at 70.5 h
COc1cccc(OC)c1C(=O)N1C[C@@H](CN(C)C)[C@@H](CO)C1 | -2.79%
O=C(c1cccc(F)c1F)N1CCn2c(nnc2C(F)(F)F)C1 | -4.83%
COc1ncccc1NC(=O)NCC(O)c1ccc(F)cc1F (stereo unspecified) | -1.05%
COc1ncccc1CN1CCn2c(Cn3cncn3)cnc2C1 | 20.3%
CC(=O)c1cc(CC(=O)NCc2c(F)cccc2F)cs1 | -7.61%
CN(C)CCOCc1cncc2c1CCN(C(=O)c1cscn1)C2 | -3.85%
Cc1cccc(CN2CC3(CCN(Cc4ccoc4)CC3)OCC2=O)n1 | 17.7%
O=C(CN1CCC2(CCCN(CCO)C2=O)C1)NCCc1ccccc1 (stereo unspecified) | 11.6%
COc1ccccc1CN1C[C@@H](F)[C@@H](OCc2nc3ncccc3[nH]2)C1 | -0.841%
O=C(CCc1ccsc1)Nc1cnccc1O | -6.71%
CC(C)CC(=O)N1CC(=O)N(Cc2ccco2)CC(O)C1 (stereo unspecified) | 8.54%
O=C(NCCc1ccc2c(c1)OCO2)C1CCCN(Cc2ccco2)C1 (stereo unspecified) | 1.41%
CN(Cc1ccc2nsnc2c1)C(=O)CCc1cc2n(n1)CCCNC2 | -8.3%
Cc1ccnc(C2CCN(C(=O)c3cnn(C)c3)C2)n1 (stereo unspecified) | 12.7%
CCN1CCN(C(C)CNC(=O)Nc2nc3ccccc3s2)CC1 (stereo unspecified) | -7.3%
COc1ccc(-n2cnnc2SCC(=O)NC(C)C)cn1 | -3.19%
Cc1nccn1[C@@H]1CC[C@@H](NC(=O)CCCn2cncn2)[C@H]1O | 16.1%
CCCS(=O)(=O)N1CCOC2(CCCN(c3ncc(F)cn3)C2)C1 (stereo unspecified) | -13.3%
Clc1ccc(-c2cnc(CNC3CCc4ncnn4C3)o2)cc1 (stereo unspecified) | -12.9%
COCCNC(=O)c1nc(-c2cn(C)cn2)n2ccccc12 | -7.59%
CCC(C#N)NC(=O)c1ccc(Oc2cccnc2)cc1 (stereo unspecified) | -8.45%
Cc1cccnc1N1CCN(C(=O)CCc2ccccn2)CC1 | 20.1%
CC(NC(N)=O)C(=O)NCc1ccc(Br)c(F)c1 (stereo unspecified) | 0.261%

Compound | cytotoxicity at 70.5 h
O=C(c1cn(-c2cc(N3CCOCC3)ncn2)cn1)N1CCSCC1 | -2%
O=C(Nc1cccnc1)C1CN(C(=O)c2ccc3c(c2)OCO3)C1 | -14.4%
CN(Cc1cccs1)C1CCC[C@@H]2CN(C(=O)c3cccn3C)C[C@H]12 (stereo partly specified) | -12.3%
COc1cccc(CN2CCCC3(CCN(C(=O)N4CCCC4)C3)C2)c1 (stereo unspecified) | -7.71%
CCc1ccc(CN2CC[C@@H]3CN(S(C)(=O)=O)CCO[C@@H]3C2)o1 | -3.27%
CSc1nnc(C2CCN(C(=O)N3CCCC3)CC2)n1C | -9.43%
O=C(Cc1cccc(F)c1)NCCCNC(=O)c1cccc(O)c1 | -2.95%
COC[C@@]12CCO[C@@H]1CCN(Cc1sccc1C)C2 | -10.6%
c1ccc(OCc2noc(CN3CCN(C4CCCC4)CC3)n2)cc1 | 9.68%
Cc1cnn(CCNCC(=O)N2CCN(c3ccccn3)CC2)c1 | 8.76%
CC(C)(C)C(=O)NCCCc1nc2ccccc2[nH]1 | -11.6%
O[C@@H]1C[C@H]2CN(Cc3ccccc3Cl)[C@H](Cc3ccccc3)CN2C1 | 25.5%
COc1ccc(NC(=O)CCN2CC=C(c3cnn(C)c3)CC2)cc1Cl | 5.66%
c1ccc(-c2nn3c(CN4CCOCC4)nnc3s2)nc1 | -3.21%
COCc1cc(O)nc(C2CCCN(Cc3cc(OC)ccc3F)C2)n1 (stereo unspecified) | -4.84%
CC(C)(C)OCCN1CCCC1c1nc(Cc2ccc(F)cc2)no1 (stereo unspecified) | 11.6%
Cn1cc(N2C(=O)CC[C@@H]3[C@H]2CCN3Cc2ccncc2)cn1 | 6.03%
CCC(=O)Nc1nnc(CCCOc2ccccc2)s1 | -13.1%
COc1ccc(-c2nc(CN3CCc4cncnc4C3)no2)cc1 | -3.32%
